Laboratory results: patent US20170325459A1, “BICYCLIC COMPOUNDS AS PEST CONTROL AGENTS” (Bayer CropScience Aktiengesellschaft, priority 2014, published 2017)

How the values were obtained:
[1] = log P by HPLC (OECD Guideline 117), method [a] acidic range pH 2.7; format: physicochemical; conditions: for chromatographic logP: reversed-phase (RP) C18 HPLC column
Experimental: (§1) The log P values were determined in accordance with OECD Guideline 117 (EC Directive 92/69/EEC) by HPLC (high-performance liquid chromatography) using reversed-phase (RP) columns (C18), by the following methods: [a] The LC-MS determination in the acidic range is carried out at pH 2.7 with 0.1% aqueous formic acid and acetonitrile (contains 0.1% formic acid) as eluents; linear gradient from 10% acetonitrile to 95% acetonitrile. [b] LC-MS determination in the neutral range is effected at pH 7.8 with 0.001 molar aqueous ammonium hydrogencarbonate solution and acetonitrile as eluents; linear gradient from 10% acetonitrile to 95% acetonitrile. Calibration is effected using unbranched alkan-2-ones (having 3 to 16 carbon atoms) with known log P values (log P values determined on the basis of the retention times by linear interpolation between two successive alkanones).

[2] = log P by HPLC (OECD Guideline 117), method [b] neutral range pH 7.8; format: physicochemical; conditions: for chromatographic logP: reversed-phase (RP) C18 HPLC column
Experimental: as §1

Myzus persicae = Myzus persicae spray test; format: in vivo; conditions: Chinese cabbage leaf discs, after 6 days; for pest or weed control at 500 g/ha: Myzus persicae, foliar, 144 h, read-out: efficacy (aphids killed)
Experimental: Myzus persicae—Spray Test Solvent: 78 parts by weight of acetone • • 1.5 parts by weight of dimethylformamide Emulsifier: alkylaryl polyglycol ether To produce a suitable active ingredient formulation, 1 part by weight of active ingredient is dissolved using the specified parts by weight of solvent and made up with water containing an emulsifier concentration of 1000 ppm until the desired concentration is attained. To produce further test concentrations, the formulation is diluted with emulsifier-containing water. Discs of Chinese cabbage leaves (Brassica pekinensis) infested by all stages of the green peach aphid (Myzus persicae) are sprayed with an active ingredient formulation of the desired concentration. After 6 days, the efficacy in % is determined. 100% means that all the aphids have been killed and 0% means that none of the aphids have been killed.

Tetranychus urticae = Tetranychus urticae spray test, OP-resistant; format: in vivo; conditions: application rate 500 g/ha, bean leaf discs, after 6 days
Experimental: Tetranychus urticae—Spray Test, OP-Resistant
(§2) Solvent: 78.0 parts by weight of acetone • • 1.5 parts by weight of dimethylformamide
(§3) Emulsifier: alkylaryl polyglycol ether
(§4) To produce a suitable active ingredient formulation, 1 part by weight of active ingredient is dissolved using the specified parts by weight of solvent and made up with water containing an emulsifier concentration of 1000 ppm until the desired concentration is attained. To produce further test concentrations, the formulation is diluted with emulsifier-containing water.
Discs of bean leaves (Phaseolus vulgaris) infested with all stages of the greenhouse red spider mite (Tetranychus urticae) are sprayed with an active ingredient formulation of the desired concentration.
After 6 days, the efficacy in % is determined. 100% meant that all the spider mites have been killed and 0% means that no spider mites have been killed.

Phaedon cochleariae = Phaedon cochleariae spray test; format: in vivo; conditions: application rate 500 g/ha, Chinese cabbage leaf discs, after 7 days
Experimental: Phaedon cochleariae—Spray Test
as §2, §3, §4
After 7 days, the efficacy in % is determined. 100% means that all the beetle larvae have been killed and 0% means that none of the beetle larvae have been killed.

Boophilus microplus = Boophilus microplus injection test; format: in vivo; conditions: application rate 20 μg/animal, injection into engorged adult female cattle ticks, assessed after 7 days
Experimental: Boophilus microplus—Injection Test Solvent: dimethyl sulphoxide To produce a suitable active ingredient formulation, 10 mg of active ingredient are mixed with 0.5 ml of solvent and the concentrate is diluted to the desired concentration with solvent. 1 μl of the active ingredient solution is injected into the abdomen of 5 engorged adult female cattle ticks (Boophilus microplus). The animals are transferred into dishes and kept in a climate-controlled room. Efficacy is assessed after 7 days by laying of fertile eggs. Eggs which are not visibly fertile are stored in a climate-controlled cabinet until the larvae hatch after about 42 days. An efficacy of 100% means that none of the ticks has laid any fertile eggs; 0% means that all the eggs are fertile.

| Compound | logP[a] [1] | logP[b] [2] | efficacy (aphids killed) (Myzus persicae; application rate 500 g/ha) [%] | chromatographic logP [1] | chromatographic logP [2] | pest or weed control at 500 g/ha (Myzus persicae; application rate 500 g/ha) [%] | other results |
| --- | --- | --- | --- | --- | --- | --- | --- |
| Cc1ccccc1-c1ccc2nc(-c3cccnc3)sc2c1 [compound 2] | 4.08 | 4.24 | 100 | – | – | – | efficacy (spider mites killed) (Tetranychus urticae): 90% |
| Cc1cccc(-c2ccc3nc(-c4cccnc4)sc3c2)c1 [compound 3, 6-(3-Methylphenyl)-2-(pyridin-3-yl)-1,3-benzothiazole] | – | – | – | 4.27 | 4.41 | 90 | – |
| Cc1ccc(-c2ccc3nc(-c4cccnc4)sc3c2)cc1 [compound 4] | 4.25 | 4.43 | 100 | – | – | – | – |
| Clc1cccc(-c2ccc3nc(-c4cccnc4)sc3c2)c1 [compound 7] | – | – | – | 4.32 | 4.49 | 100 | efficacy (beetle larvae killed) (Phaedon cochleariae): 83% |
| Clc1ccc(-c2ccc3nc(-c4cccnc4)sc3c2)cc1 [compound 8] | 4.43 | – | – | – | – | – | efficacy (beetle larvae killed) (Phaedon cochleariae): 83% |
| Cc1cc(C)c(-c2ccc3nc(-c4cccnc4)sc3c2)cc1SCC(F)(F)F [compound 9, 6-{2,4-Dimethyl-5-[(2,2,2-trifluoroethyl)sulphanyl]phenyl}-2-(pyridin-3-yl)-1,3-benzothiazole] | – | – | – | 5.22 | 5.24 | 90 | – |
| Cc1cc(C)c([S+]([O-])CC(F)(F)F)cc1-c1ccc2nc(-c3cccnc3)sc2c1 (stereo not drawn) [compound 10, 6-{2,4-Dimethyl-5-[(2,2,2-trifluoroethyl)sulphinyl]phenyl}-2-(pyridin-3-yl)-1,3-benzothiazole] | – | – | – | 3.45 | 3.4 | 90 | – |
| Cc1cc(F)c(-c2ccc3nc(-c4cccnc4)sc3c2)cc1SCC(F)(F)F [compound 11, 6-{2-Fluoro-4-methyl-5-[(2,2,2-trifluoroethyl)sulphanyl]phenyl}-2-(pyridin-3-yl)-1,3-benzothiazole] | – | – | – | 4.96 | 4.97 | 90 | – |
| Cc1cc(F)c(-c2ccc3nc(-c4cccnc4)sc3c2)cc1[S+]([O-])CC(F)(F)F (stereo not drawn) [compound 12, 6-{2-Fluoro-4-methyl-5-[(2,2,2-trifluoroethyl)sulphinyl]phenyl}-2-(pyridin-3-yl)-1,3-benzothiazole] | – | – | – | 3.33 | 3.33 | 90 | – |
| FC(F)(F)CNc1ccc2nc(-c3cccnc3)sc2c1 [compound 13, 2-(Pyridin-3-yl)-N-(2,2,2-trifluoroethyl)-1,3-benzothiazol-6-amine] | – | – | – | 2.36 | 2.47 | 90 | – |
| Cc1cc(C)c(SCC(F)(F)F)cc1Nc1ccc2nc(-c3cccnc3)sc2c1 [compound 18, N-{2,4-Dimethyl-5-[(2,2,2-trifluoroethyl)sulphanyl]phenyl}-2-(pyridin-3-yl)-1,3-benzothiazol-6-amine] | – | – | – | 4.45 | 4.51 | 90 | – |
| Cc1cc(F)c(Nc2ccc3nc(-c4cccnc4)sc3c2)cc1SCC(F)(F)F [compound 20, N-{2-Fluoro-4-methyl-5-[(2,2,2-trifluoroethyl)sulphanyl]phenyl}-2-(pyridin-3-yl)-1,3-benzothiazol-6-amine] | – | – | – | 4.18 | 4.22 | 90 | – |
| c1cncc(-c2nc3ccc(-n4ccnc4)cc3s2)c1 [compound 25, 6-(1H-Imidazol-1-yl)-2-(pyridin-3-yl)-1,3-benzothiazole] | – | – | – | – | 1.64 | 90 | efficacy (laying of fertile eggs) (Boophilus microplus): 80% |
| FC(F)(F)c1cnn(-c2ccc3nc(-c4cccnc4)sc3c2)c1 [compound 27] | – | 3.42 | 90 | – | – | – | – |
| FC(F)(F)c1ccn(-c2ccc3nc(-c4cccnc4)sc3c2)n1 [compound 28, 2-(Pyridin-3-yl)-6-[3-(trifluoromethyl)-1H-pyrazol-1-yl]-1,3-benzothiazole] | – | – | – | – | 3.46 | 100 | efficacy (laying of fertile eggs) (Boophilus microplus): 80% |
| c1cnc(-c2ccn(-c3ccc4nc(-c5cccnc5)sc4c3)n2)nc1 [compound 30, 2-(Pyridin-3-yl)-6-[3-(pyrimidin-2-yl)-1H-pyrazol-1-yl]-1,3-benzothiazole] | – | – | – | – | 2 | 90 | – |
| C[S+]([O-])Cn1cc(-c2ccc3nc(-c4cccnc4)sc3c2)cn1 (stereo not drawn) [compound 39, 6-{1-[(Methylsulphinyl)methyl]-1H-pyrazol-4-yl}-2-(pyridin-3-yl)-1,3-benzothiazole] | – | – | – | 1.32 | 1.51 | 100 | – |
| Cc1cnn(-c2ccc3nc(-c4cccnc4)sc3c2)c1 [compound 45] | 2.62 | 2.71 | 90 | – | – | – | – |
| Cn1cnn(-c2ccc3nc(-c4cccnc4)sc3c2)c1=S [compound 46] | 1.35 | 1.49 | 90 | – | – | – | – |
| Cn1c(=O)n(C)n(-c2ccc3nc(-c4cccnc4)sc3c2)c1=O [compound 47] | 1.52 | 1.63 | 100 | – | – | – | – |
| Cc1nn(-c2ccc3nc(-c4cccnc4)sc3c2)c(=O)n1C [compound 48] | 1.66 | 1.81 | 90 | – | – | – | – |
| Cc1nn(-c2ccc3nc(-c4cccnc4)sc3c2)c(=S)n1C [compound 49] | 1.41 | 1.58 | 90 | – | – | – | – |
| CSc1nn(-c2ccc3nc(-c4cccnc4)sc3c2)c(=O)n1C [compound 51] | 2.43 | 2.56 | 100 | – | – | – | – |
| Cn1c(=O)cnn(-c2ccc3nc(-c4cccnc4)sc3c2)c1=O [compound 56, 4-Methyl-2-[2-(pyridin-3-yl)-1,3-benzothiazol-6-yl]-1,2,4-triazine-3,5(2H,4H)-dione] | – | – | – | 1.79 | 1.84 | 90 | – |
| CS(=O)(=O)CCNC(=O)c1ccc2nc(-c3cccnc3)sc2c1 [compound 71, N-[2-(Methylsulphonyl)ethyl]-2-(pyridin-3-yl)-1,3-benzothiazole-6-carboxamide] | – | – | – | 1.19 | – | 100 | – |
| CSCCC(=O)N(C)c1ccc2nc(-c3cccnc3)sc2c1 [compound 78] | 2.08 | – | 100 | – | – | – | – |
| CSCCC(=O)N(C)c1ccc2nc(-c3cncc(F)c3)sc2c1 [compound 79] | 2.64 | – | 100 | – | – | – | – |
| CS(=O)(=O)CCC(=O)Nc1ccc2nc(-c3cccnc3)sc2c1 [compound 80] | 1.22 | – | – | – | – | – | efficacy (aphids killed) (Myzus persicae; application rate 20 g/ha): 100% |
| CN(C(=O)C1CCS(=O)(=O)C1)c1ccc2nc(-c3cccnc3)sc2c1 (stereo not drawn) [compound 82] | 1.49 | – | 90 | – | – | – | – |
